# From patent US12270041B2, “ROP—deficient plants having high water use efficiency” (RAMOT AT TEL-AVIV UNIVERSITY LTD., priority 2019, dated 2025)
# Columns and labels:
# [1] = system: ROS levels in guard cells; test: ROS measurements in guard cells (H2DCF fluorescence); format: cell-based, Tomato (S. lycopersicum)
# Protocol: Reactive oxygen species (ROS) levels in guard cells were monitored using a fluorescence-based assay with 2′,7′-dichlorofluorescien diacetate (H2DCF-DA). Abaxial epidermises of cotyledons were mounted on microscope slides with medical adhesive Telesis V and loaded with stomatal opening buffer with 50 μM H2DCF-DA for 30 min. Excess H2DCF-DA was removed by washing with water, and samples were loaded with 0.1% ethanol (mock) or 10 μM ABA in opening buffer. After 15 min, fluorescence images were collected using a Zeiss-LSM 780 NLO confocal microscope. Fluorescence measured from about thirty stomata of each biological replicate was determined using Image J.
# [2] = system: ROP activity in guard cells; test: Distribution of GFP-ICR1ΔN ROP activity probe in guard cells; format: cell-based; conditions: Arabidopsis guard cells, 10 μM ABA, one hour
# Protocol: Expression of GFP-ICR1ΔN was induced in 7-days old Arabidopsis seedlings with 5 μM β-estradiol dissolved in 99.5% DMSO. After 24 h of induction plants were treated with control (0.5× Murashige Skoog (MS) medium supplemented with 0.1% ETOH (control) or with 10 μM ABA dissolved in 0.1% ETOH. Analysis of GFP-ICR1ΔN distribution was carried out 1 h after treatments with control or ABA supplemented media using Zeiss LSM 780-NLO confocal microscope by excitation at 488 nm and emission spectrum at 501-546 nm using 40× and 63× water objectives. Image analyses were performed with ZEN 2012 Digital Imaging and Image J.
# To follow the regulation of ROP activity in guard cells a fluorescent probe which is specifically expressed in guard cells was generated. The probe consists GFP fused to the […] C-terminal residues of ROP effector ICR1 (between residues 171-344) and was designated GFP-ICRΔN. […] To prevent possible steric hindrance of the ICRΔN moiety by GFP, a flexible linker consisting of 3 repeats of (Gly)4Ser (3×GGGGS) sequence were cloned between the ICRΔN and the GFP moieties. To prevent negative effects that could occur due to long-term expression of a ROP effector, the expression of the probe was induced by estradiol under regulation of the ROP11 promoter. […] The distribution of the probe between the membrane and cytoplasm reflected the degree of ROP activation. […]
# [3] = system: P5CS1 and RAB18 expression; test: QPCR of ABA-responsive genes; format: cell-based, Tomato (S. lycopersicum); conditions: M82, rop9-1 and rop9-4 cotyledons, 50 μM ABA
# Protocol: For expression of ABA induced genes, total RNA was extracted from mock-treated or ABA-treated cotyledons or from 2- to 3-week-old soil-grown plants using the RNeasy Plant Mini Kit (Qiagen). cDNAs were prepared using the High-capacity cDNA Reverse Transcription Kit (Applied Biosystems). Oligonucleotide primers for tubulin, P5CS1, and RAB18 were identical to those used by Nir et al. (2017, ibid). Expression was normalized to tubulin. Gene expression of the M82 mock-treated samples was set to 1, and then remaining samples were calculated proportionately. Data are the means (±SE) of three independent biological replicates.
# [4] = system: stomata of M82 and rop9 mutant cotyledons; test: Measurements of stomata aperture (width/length) in excised cotyledons; format: cell-based, Tomato (S. lycopersicum)
# Protocol: […] assays were carried out as previously described (Puli, M. R. et al., J Exp Bot 63, 1349-1356, 2012). with the following modifications. Cotyledons were excised from M82 or rop9 mutants (10-15 days after sowing in soil) and were transferred immediately to stomatal opening buffer (10 mM MES-KOH, pH 7.0, 50 mM KCl) with or without ABA and treated for 3 h under light (110 to 120 μE m^−2 s^−1). Mock-treated controls were treated with 0.1% vol/vol ethanol. After 3 h, the abaxial epidermis of cotyledons was affixed to a glass slide with Telesis 5 silicone adhesive (Premiere Products) and bright-field images were taken with a Zeiss-LSM 780 NLO confocal microscope. For each biological replicate, width and length of 30 to 40 stomatal apertures were measured using Image J.
# M82 seeds = test: Seed germination assay on ABA-supplemented medium; format: in vivo, Tomato (S. lycopersicum); conditions: 5 μM ABA, seven days
# Protocol: Seeds of M82 and rop9 mutant plants (50 seeds per genotype) were surface sterilized for 2 min in ethanol followed by 20 min in 3% sodium hypochlorite, washed with excess of water (˜100 ml) and sown on 0.5×MS+1% agar plates (without sucrose) supplemented with 0.1% ethanol (mock) or 1 or 5 μM ABA (in 0.1% ethanol). Seeds were kept at 4° C. for 48 h for […] and moved to 25° C. in the dark for germination. The percentage of seeds germinated were determined after seven days.
# [5] = system: M82 and rop9 mutant seedlings; test: Primary root elongation assay; format: in vivo, Tomato (S. lycopersicum); conditions: 1 or 5 μM ABA, 48 h
# Protocol: Seven-day-old M82 and rop9 mutant seedlings were transferred to 0.5×MS+1% agar plates (without sucrose) supplemented with 0.1% ethanol (mock) or 1 or 5 μM ABA in 0.1% ethanol, and root lengths were marked. Root elongation was measured after 48 h.
Structure (SMILES),"H2DCF signal ([1]; M82 guard cells, 10 μM ABA, 15 min)","H2DCF signal ([1]; rop9-1 and rop9-4 guard cells, 10 μM ABA, 15 min)",distribution of the probe between plasma membrane and cytoplasm [2],expression of P5CS1 and RAB18 [3],"stomata aperture (width/length) ([4]; M82, rop9-1 and rop9-4 cells, 10 μM ABA (positive control))","stomata aperture (width/length) ([4]; M82 cotyledons, 1 or 10 μM ABA, 3 h under light)",seed germination (M82 seeds),root elongation [5],"H2DCF signal ([1]; rop9-1 and rop9-4 guard cells treated with ABA, 5 μM DPI)","stomata aperture (width/length) ([4]; M82 stomata, 5 μM DPI)","stomata aperture (width/length) ([4]; rop9-1 and rop9-4 stomata, 5 μM DPI)"
"CC1=CC(=O)CC(C)(C)[C@@]1(O)/C=C/C(C)=C\C(=O)O [ABA, Abscisic acid]",induced significant enhancement,significantly reduced the signal,significant shift of the probe from the plasma membrane to the cytoplasm,induced to a similar extent by ABA in both wild-type and mutant leaves,expected closing of stomata were observed,induced stomata closure,significantly inhibited,inhibited to a similar extent in M82 and the rop9 mutants,,,
"c1ccc2c(c1)[I+]c1ccccc1-2 [DPI, Diphenyleneiodonium chloride]",,,,,,,,,decreased the H2DCF signal,had no effect,induced opening
